Data as given in ChEMBL document CHEMBL1136175, “Synthesis and antimycobacterial activity of capuramycin analogues. Part 2: acylated derivatives of capuramycin-related compounds” (Bioorg Med Chem Lett, 2003).
Converted amounts (≈) assume the structure as drawn.

Columns and labels:
[1] = system: Mycolicibacterium smegmatis; assay: Antimycobacterial activity was determined against Mycobacterium smegmatis SANK75075; format: functional
[2] = biological target: T1, Phospho-N-acetylmuramoyl-pentapeptide-transferase (Escherichia coli K-12, UniProt P0A6W3); assay: Inhibitory concentration required against Translocase I
T1 sequence (P0A6W3 whole entry): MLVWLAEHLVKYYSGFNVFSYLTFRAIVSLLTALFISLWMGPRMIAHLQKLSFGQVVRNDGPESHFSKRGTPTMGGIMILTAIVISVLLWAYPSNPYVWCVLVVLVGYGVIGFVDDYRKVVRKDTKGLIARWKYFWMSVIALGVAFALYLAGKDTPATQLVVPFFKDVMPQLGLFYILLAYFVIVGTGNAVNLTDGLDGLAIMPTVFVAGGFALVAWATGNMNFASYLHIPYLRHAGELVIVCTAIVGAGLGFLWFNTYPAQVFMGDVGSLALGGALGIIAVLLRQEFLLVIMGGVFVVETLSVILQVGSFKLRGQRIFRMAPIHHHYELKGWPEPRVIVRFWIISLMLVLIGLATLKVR

[3] = system: Mycobacterium intracellulare; assay: Antimycobacterial activity against Mycobacterium intracellular ATCC 1954 E-3; format: functional
Mycobacterium kansasii = assay: Antimycobacterial activity against Mycobacterium kansasii ATCC 12478; format: functional
Mycobacterium avium = assay: Antimycobacterial activity against Mycobacterium avium NIHJ1605; format: functional

| Structure (SMILES) | MIC [1] [µg/mL] | IC50 [2] [µM] | MIC [3] [µg/mL] | MIC (Mycobacterium kansasii) [µg/mL] | MIC (Mycobacterium avium) [µg/mL] |
| --- | --- | --- | --- | --- | --- |
| CCCCCCCCC(=O)O[C@@H]1[C@H](OC)[C@@H]([C@@H](O[C@H]2OC(C(=O)N[C@H]3CCC[C@@H](C)NC3=O)=C[C@H](O)[C@@H]2O)C(N)=O)O[C@H]1n1ccc(=O)[nH]c1=O | 25 (≈ 34.5 µM) | 0.235 |  |  |  |
| CCCCCCCCCCCCCCCCCCCCCC(=O)O[C@@H]1[C@H](OC)[C@@H]([C@@H](O[C@H]2OC(C(=O)N[C@H]3CCCCNC3=O)=C[C@H](O)[C@@H]2O)C(N)=O)O[C@H]1n1ccc(=O)[nH]c1=O | 100 (≈ 112 µM) |  |  |  |  |
| CCCCCCCCCCCCCCCCC(=O)O[C@@H]1[C@H](OC)[C@@H]([C@@H](O[C@H]2OC(C(=O)N[C@H]3CCC[C@@H](C)NC3=O)=C[C@H](O)[C@@H]2O)C(N)=O)O[C@H]1n1ccc(=O)[nH]c1=O | > 100 |  | 8 (≈ 9.57 µM) | 4 (≈ 4.78 µM) | 2 (≈ 2.39 µM) |
| CCCCCCCCCCCCCC(=O)O[C@@H]1[C@H](OC)[C@@H]([C@@H](O[C@H]2OC(C(=O)N[C@H]3CCCCNC3=O)=C[C@H](O)[C@@H]2O)C(N)=O)O[C@H]1n1ccc(=O)[nH]c1=O | 1.56 (≈ 2 µM) |  | 1 (≈ 1.28 µM) | 4 (≈ 5.13 µM) | 2 (≈ 2.56 µM) |
| CCCCCCCCCCCCCCCCCC(=O)O[C@@H]1[C@H](OC)[C@@H]([C@@H](O[C@H]2OC(C(=O)N[C@H]3CCCCNC3=O)=C[C@H](O)[C@@H]2O)C(N)=O)O[C@H]1n1ccc(=O)[nH]c1=O | 50 (≈ 59.8 µM) |  |  |  |  |
| CC/C=C\C/C=C\C/C=C\CCCCCCCC(=O)O[C@@H]1[C@H](OC)[C@@H]([C@@H](O[C@H]2OC(C(=O)N[C@H]3CCC[C@@H](C)NC3=O)=C[C@H](O)[C@@H]2O)C(N)=O)O[C@H]1n1ccc(=O)[nH]c1=O | 3.13 (≈ 3.71 µM) |  |  |  |  |
| CCCCCCCCCCCCCCCCCCCC(=O)O[C@@H]1[C@H](OC)[C@@H]([C@@H](O[C@H]2OC(C(=O)N[C@H]3CCCCNC3=O)=C[C@H](O)[C@@H]2O)C(N)=O)O[C@H]1n1ccc(=O)[nH]c1=O | 50 (≈ 57.9 µM) |  |  |  |  |
| CO[C@H]1[C@@H](OC(=O)C(C)c2ccc([N+](=O)[O-])cc2)[C@H](n2ccc(=O)[nH]c2=O)O[C@@H]1[C@@H](O[C@H]1OC(C(=O)N[C@H]2CCC[C@@H](C)NC2=O)=C[C@H](O)[C@@H]1O)C(N)=O (stereo not given in full) | 25 (≈ 32.9 µM) |  |  |  |  |
| CCCCCCCCCCCCCCCC(=O)O[C@@H]1[C@H](OC)[C@@H]([C@@H](O[C@H]2OC(C(=O)N[C@H]3CCCCNC3=O)=C[C@H](O)[C@@H]2O)C(N)=O)O[C@H]1n1ccc(=O)[nH]c1=O | 1.56 (≈ 1.93 µM) |  | 2 (≈ 2.48 µM) | 4 (≈ 4.95 µM) | 1 (≈ 1.24 µM) |
| CCCCCCCCCCCC(=O)O[C@@H]1[C@H](OC)[C@@H]([C@@H](O[C@H]2OC(C(=O)N[C@H]3CCCCNC3=O)=C[C@H](O)[C@@H]2O)C(N)=O)O[C@H]1n1ccc(=O)[nH]c1=O | 3.13 (≈ 4.16 µM) |  | 0.125 (≈ 0.166 µM) | 0.125 (≈ 0.166 µM) | < 0.063 |
| CCCCC/C=C\C/C=C\CCCCCCCC(=O)O[C@@H]1[C@H](OC)[C@@H]([C@@H](O[C@H]2OC(C(=O)N[C@H]3CCC[C@@H](C)NC3=O)=C[C@H](O)[C@@H]2O)C(N)=O)O[C@H]1n1ccc(=O)[nH]c1=O | 6.25 (≈ 7.39 µM) |  |  |  |  |
| CCCCCCCC/C=C\CCCCCCCCCCCC(=O)O[C@@H]1[C@H](OC)[C@@H]([C@@H](O[C@H]2OC(C(=O)N[C@H]3CCC[C@@H](C)NC3=O)=C[C@H](O)[C@@H]2O)C(N)=O)O[C@H]1n1ccc(=O)[nH]c1=O | > 100 |  |  |  |  |
| CCCCCCCCCCCCCCCCCCCCCC(=O)O[C@@H]1[C@H](OC)[C@@H]([C@@H](O[C@H]2OC(C(=O)N[C@H]3CCC[C@@H](C)NC3=O)=C[C@H](O)[C@@H]2O)C(N)=O)O[C@H]1n1ccc(=O)[nH]c1=O | > 100 | 16.6 |  |  |  |
| CCCCCCCCCOC(=O)O[C@@H]1[C@H](OC)[C@@H]([C@@H](O[C@H]2OC(C(=O)N[C@H]3CCC[C@@H](C)NC3=O)=C[C@H](O)[C@@H]2O)C(N)=O)O[C@H]1n1ccc(=O)[nH]c1=O | 12.5 (≈ 16.6 µM) | 1.86 |  |  |  |
| CCCCCCOC(=O)O[C@@H]1[C@H](OC)[C@@H]([C@@H](O[C@H]2OC(C(=O)N[C@H]3CCC[C@@H](C)NC3=O)=C[C@H](O)[C@@H]2O)C(N)=O)O[C@H]1n1ccc(=O)[nH]c1=O | 50 (≈ 70.3 µM) | 0.183 |  |  |  |
| CO[C@H]1[C@@H](OC(=O)c2ccccc2)[C@H](n2ccc(=O)[nH]c2=O)O[C@@H]1[C@@H](O[C@H]1OC(C(=O)N[C@H]2CCC[C@@H](C)NC2=O)=C[C@H](O)[C@@H]1O)C(N)=O | 25 (≈ 36.4 µM) |  |  |  |  |
| CO[C@H]1[C@@H](OC(=O)CC(c2ccccc2)c2ccccc2)[C@H](n2ccc(=O)[nH]c2=O)O[C@@H]1[C@@H](O[C@H]1OC(C(=O)N[C@H]2CCC[C@@H](C)NC2=O)=C[C@H](O)[C@@H]1O)C(N)=O | 25 (≈ 31.6 µM) |  |  |  |  |
| CCCCCCCCCCCCCCC(=O)O[C@@H]1[C@H](OC)[C@@H]([C@@H](O[C@H]2OC(C(=O)N[C@H]3CCCCNC3=O)=C[C@H](O)[C@@H]2O)C(N)=O)O[C@H]1n1ccc(=O)[nH]c1=O | 3.13 (≈ 3.94 µM) |  | 1 (≈ 1.26 µM) | 4 (≈ 5.04 µM) | 2 (≈ 2.52 µM) |
| CCCCCCCCCCCCCCCCC(=O)O[C@@H]1[C@H](OC)[C@@H]([C@@H](O[C@H]2OC(C(=O)N[C@H]3CCCCNC3=O)=C[C@H](O)[C@@H]2O)C(N)=O)O[C@H]1n1ccc(=O)[nH]c1=O | 50 (≈ 60.8 µM) |  |  |  |  |
| CO[C@H]1[C@@H](O)[C@H](n2ccc(=O)[nH]c2=O)O[C@@H]1[C@@H](O[C@H]1OC(C(=O)N[C@H]2CCC[C@@H](C)NC2=O)=C[C@H](O)[C@@H]1O)C(N)=O | 6.25 (≈ 10.7 µM) |  | 4 (≈ 6.85 µM) | 16 (≈ 27.4 µM) | 8 (≈ 13.7 µM) |
| CCCCCCCCCCCCCCCCCC(=O)O[C@@H]1[C@H](OC)[C@@H]([C@@H](O[C@H]2OC(C(=O)N[C@H]3CCC[C@@H](C)NC3=O)=C[C@H](O)[C@@H]2O)C(N)=O)O[C@H]1n1ccc(=O)[nH]c1=O | > 100 | 9.41 |  |  |  |
| CCCCCCCCCC(=O)O[C@@H]1[C@H](OC)[C@@H]([C@@H](O[C@H]2OC(C(=O)N[C@H]3CCC[C@@H](C)NC3=O)=C[C@H](O)[C@@H]2O)C(N)=O)O[C@H]1n1ccc(=O)[nH]c1=O | 6.25 (≈ 8.47 µM) |  | < 0.063 | < 0.063 | < 0.063 |
| CCCCCCCCCCC(C)C(=O)O[C@@H]1[C@H](OC)[C@@H]([C@@H](O[C@H]2OC(C(=O)N[C@H]3CCC[C@@H](C)NC3=O)=C[C@H](O)[C@@H]2O)C(N)=O)O[C@H]1n1ccc(=O)[nH]c1=O (stereo not given in full) | 25 (≈ 32.1 µM) | 0.769 |  |  |  |
| CCCCCCCCCCC(C)(C)C(=O)O[C@@H]1[C@H](OC)[C@@H]([C@@H](O[C@H]2OC(C(=O)N[C@H]3CCC[C@@H](C)NC3=O)=C[C@H](O)[C@@H]2O)C(N)=O)O[C@H]1n1ccc(=O)[nH]c1=O | 6.25 (≈ 7.87 µM) | 1.26 |  |  |  |
| CCCCCCCC/C=C\CCCCCCCC(=O)O[C@@H]1[C@H](OC)[C@@H]([C@@H](O[C@H]2OC(C(=O)N[C@H]3CCC[C@@H](C)NC3=O)=C[C@H](O)[C@@H]2O)C(N)=O)O[C@H]1n1ccc(=O)[nH]c1=O | 6.25 (≈ 7.37 µM) |  |  |  |  |
| CCCCCCCC/C=C\CCCCCCCCCC(=O)O[C@@H]1[C@H](OC)[C@@H]([C@@H](O[C@H]2OC(C(=O)N[C@H]3CCC[C@@H](C)NC3=O)=C[C@H](O)[C@@H]2O)C(N)=O)O[C@H]1n1ccc(=O)[nH]c1=O | 50 (≈ 57.1 µM) |  |  |  |  |
| NNC(=O)c1ccncc1 [ISONIAZID] |  |  | 8 (≈ 58.3 µM) | 2 (≈ 14.6 µM) | 1 (≈ 7.29 µM) |
| CO[C@H]1/C=C/O[C@@]2(C)Oc3c(C)c(O)c4c(O)c(c(/C=N/N5CCN(C)CC5)c(O)c4c3C2=O)NC(=O)/C(C)=C\C=C\[C@H](C)[C@H](O)[C@@H](C)[C@@H](O)[C@@H](C)[C@H](OC(C)=O)[C@@H]1C [RIFAMPIN] |  |  | 0.125 (≈ 0.152 µM) | 0.25 (≈ 0.304 µM) | 0.125 (≈ 0.152 µM) |
